The text below walks through data of PMC5290997 (Bioconjugate chemistry, 2016).

The target of data set [1] is PSMA (Homo sapiens, UniProt Q04609). Kind of data set: PSMA inhibition assay. Type of data set: biochemical. The note with it: LNCaP cell lysates, 4 µM NAAG, Cheng-Prusoff conversion.
The conditions of data set [2]: chelating agent for ^68Ga; cited from earlier work.

The structures appear in SMILES notation.

Chain of PSMA (Q04609 whole entry): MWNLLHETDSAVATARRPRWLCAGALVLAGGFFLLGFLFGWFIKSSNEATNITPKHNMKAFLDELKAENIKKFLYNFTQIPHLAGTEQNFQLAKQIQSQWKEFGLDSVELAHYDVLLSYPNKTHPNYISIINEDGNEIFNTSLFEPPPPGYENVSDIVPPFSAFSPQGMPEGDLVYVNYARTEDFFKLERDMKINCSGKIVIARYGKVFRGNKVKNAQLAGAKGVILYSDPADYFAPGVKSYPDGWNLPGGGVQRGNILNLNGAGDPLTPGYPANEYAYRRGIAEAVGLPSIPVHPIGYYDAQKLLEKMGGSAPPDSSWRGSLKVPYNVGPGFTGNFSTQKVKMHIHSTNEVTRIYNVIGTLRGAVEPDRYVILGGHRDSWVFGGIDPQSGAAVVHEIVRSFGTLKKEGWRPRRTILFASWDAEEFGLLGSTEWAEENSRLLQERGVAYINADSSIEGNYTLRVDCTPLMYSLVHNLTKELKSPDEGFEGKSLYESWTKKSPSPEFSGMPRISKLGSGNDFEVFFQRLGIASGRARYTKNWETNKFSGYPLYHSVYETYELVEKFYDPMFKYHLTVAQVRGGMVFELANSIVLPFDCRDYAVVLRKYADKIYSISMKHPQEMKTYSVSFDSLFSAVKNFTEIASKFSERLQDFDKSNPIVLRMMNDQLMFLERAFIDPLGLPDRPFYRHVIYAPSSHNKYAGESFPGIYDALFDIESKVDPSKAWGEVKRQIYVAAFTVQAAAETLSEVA

By Ki is commonly meant the equilibrium dissociation constant of an inhibitor or competing ligand from its target. For `O=C(O)CCc1ccc(O)c(CN(CCN(CC(=O)O)Cc2cc(CCC(=O)NCCCCCC(=O)NCCCC[C@H](NC(=O)N[C@@H](CCC(=O)O)C(=O)O)C(=O)O)ccc2O)CC(=O)O)c1` [DKFZ-PSMA-11, Glu-urea-Lys-(Ahx)-HBED-CC], the Ki in data set [1] is 0.03 nM.

Consider `O=C(O)CN1CCN(CC(=O)O)CCN(CC(=O)O)CCN(CC(=O)O)CC1` [DOTA], for which, in data set [2], the “stability constant, KML” value was 21.3.

On to `O=C(O)CN1CCN(CC(=O)O)CCN(CC(=O)O)CC1` [NOTA, 1,4,7-triazacyclononane-1,4,7-triacetic acid], for which, in data set [2], the “stability constant, KML” value is 31.1.
